Results: DBAASP
Converted amounts (≈) assume the structure as drawn. Each block holds one molecule with its values, some of them ahead of it.

Tests used:
Test in all cases: ≥ marks a high value that may be exact or a test limit, other limits are often not marked, values filed in µg/mL are converted to µM
[1] = test system: Klebsiella pneumoniae ATCC 10031
[2] = test system: Salmonella enterica subsp. enterica serovar Typhimurium ATCC 14028
[3] = test system: Escherichia coli DH5alpha
[4] = test system: Staphylococcus aureus ATCC 25923
[5] = test system: Pseudomonas aeruginosa ATCC 27853
[6] = test system: Acinetobacter baumannii ATCC 19606
[7] = test system: Escherichia coli ATCC 25922
[8] = test system: Escherichia coli ATCC 25726
[9] = test system: Klebsiella pneumoniae ATCC 700603
[10] = test system: Candida albicans ATCC 90028

MIC [1]: ≥ 46 µM
MIC [2]: > 46 µM
MIC [3]: ≥ 46 µM
SMILES: CC[C@H](C)[C@@H]1NC(=O)[C@H](CCCCN)NC(=O)[C@@H](NC(=O)[C@@H](NC(=O)[C@@H](NC(=O)[C@@H](NC(=O)[C@@H]2CCCN2C(=O)[C@H](CC(C)C)NC(=O)[C@H](Cc2ccccc2)NC(=O)[C@H](CC(N)=O)NC(=O)[C@H](C)NC(=O)[C@H](C)NC(=O)[C@H](CC(C)C)NC(=O)CNC(=O)[C@H](C)NC(=O)[C@@H](N)Cc2ccccc2)[C@@H](C)O)[C@@H](C)CC)[C@@H](C)CC)CSSC[C@@H](C(=O)O)NC(=O)[C@H](CCCCN)NC(=O)[C@H](Cc2ccc(O)cc2)NC(=O)[C@H](CO)NC1=O [FAGLAANFLPTIICKISYKC]

MIC [4]: 64 µM (≈ 85.9 µg/mL)
MIC [8]: ≥ 128 µM
SMILES: CC(C)C[C@H](NC(=O)[C@H](CC(C)C)NC(=O)CNC(=O)[C@H](CO)NC(=O)[C@H](CC(C)C)NC(=O)[C@H](CC(C)C)NC(=O)CNC(=O)[C@@H](NC(=O)[C@@H](NC(=O)[C@H](CC(C)C)NC(=O)[C@@H]1CCCN1C(=O)[C@H](CC(C)C)NC(=O)[C@@H](N)Cc1ccccc1)C(C)C)[C@@H](C)O)C(N)=O [FLPLVTGLLSGLL]

The next lines start with the molecule.

SMILES: CC(C)C[C@H](NC(=O)[C@H](CC(C)C)NC(=O)[C@H](CCCCN)NC(=O)[C@H](CCCCN)NC(=O)[C@H](CC(C)C)NC(=O)[C@@H](NC(=O)[C@H](CCCCN)NC(=O)[C@H](CC(C)C)NC(=O)[C@@H](N)Cc1ccccc1)[C@@H](C)O)C(N)=O [FLKTLKKLL]
MIC [4]: 58 µM (≈ 63.9 µg/mL)
MIC [5]: 7.25 µM (≈ 7.99 µg/mL)
MIC [6]: 58 µM (≈ 63.9 µg/mL)
MIC [7]: 58 µM (≈ 63.9 µg/mL)

SMILES: CC[C@H](C)[C@H](N)C(=O)N[C@@H](CCCCN)C(=O)N[C@H](C(=O)N1CCC[C@H]1C(=O)N[C@@H](C)C(=O)N[C@@H](Cc1ccccc1)C(=O)N[C@H](C(=O)N[C@@H](CCCCN)C(=O)N[C@@H](CC(=O)O)C(=O)N[C@H](C(=O)N[C@@H](CC(C)C)C(=O)N[C@@H](CCCCN)C(=O)N[C@@H](CCCCN)C(=O)N[C@H](C(=O)N[C@@H](C)C(=O)N[C@@H](CCCCN)C(=O)NCC(=O)N[C@H](C(=O)N[C@H](C(=O)N[C@@H](CO)C(=O)N[C@@H](C)C(=O)N[C@H](C(=O)N[C@@H](C)C(=O)NCC(=O)N[C@@H](C)C(=O)N[C@@H](CC(C)C)C(=O)N[C@H](C(=O)N[C@@H](CCC(N)=O)C(=O)O)[C@@H](C)O)C(C)C)[C@@H](C)CC)C(C)C)C(C)C)[C@@H](C)O)C(C)C)[C@@H](C)CC [IKIPAFVKDTLKKVAKGVISAVAGALTQ]
MIC [4]: 20 µM (≈ 57.4 µg/mL)
MIC [8]: 20 µM (≈ 57.4 µg/mL)
MIC [5]: 20 µM (≈ 57.4 µg/mL)
MIC [9]: 20 µM (≈ 57.4 µg/mL)
MIC [10]: ≥ 80 µM

SMILES: CC[C@H](C)[C@H](N)C(=O)N[C@@H](CCCCN)C(=O)N[C@H](C(=O)N1CCC[C@H]1C(=O)N1CCC[C@H]1C(=O)N[C@H](C(=O)N[C@H](C(=O)N[C@@H](CCCCN)C(=O)N[C@@H](CC(=O)O)C(=O)N[C@H](C(=O)N[C@@H](CC(C)C)C(=O)N[C@@H](CCCCN)C(=O)N[C@@H](CCCCN)C(=O)N[C@H](C(=O)N[C@@H](C)C(=O)N[C@@H](CCCCN)C(=O)NCC(=O)N[C@H](C(=O)N[C@@H](CC(C)C)C(=O)N[C@@H](CO)C(=O)N[C@H](C(=O)N[C@H](C(=O)N[C@@H](C)C(=O)NCC(=O)N[C@@H](C)C(=O)N[C@@H](CC(C)C)C(=O)N[C@@H](CO)C(=O)N[C@H](C(=O)O)[C@@H](C)O)[C@@H](C)CC)[C@@H](C)O)C(C)C)C(C)C)[C@@H](C)O)C(C)C)[C@@H](C)CC)[C@@H](C)CC [IKIPPIVKDTLKKVAKGVLSTIAGALST]
MIC [4]: 80 µM (≈ 229 µg/mL)
MIC [8]: ≥ 40 µM
MIC [10]: ≥ 160 µM

SMILES: CC[C@H](C)[C@@H]1NC(=O)[C@H](CCSC)NC(=O)[C@@H]2CCCN2C(=O)[C@@H]2CCCN2C(=O)[C@@H](NC(=O)[C@@H](N)Cc2c[nH]c3ccccc23)CSSC[C@@H](C(=O)N[C@@H](CO)C(=O)N[C@@H](CCCN=C(N)N)C(=O)N[C@@H](Cc2ccccc2)C(N)=O)NC(=O)[C@H](CC(C)C)NC(=O)[C@@H]2CCCN2C1=O [WCPPMIPLCSRF]
MIC [4]: > 200 µM
MIC [8]: ≥ 200 µM
